# Data: patent US20180161461A1, “Rare Earth Oxide Particles and Use Thereof in Particular In Imaging” (Ecole Polytechnique, priority 2012, published 2018)
# Experiments:
# [1] = logarithmic dissociation constant for the Gd-ligand complexes (GdL); cited from earlier work
# [2] = proton resonance frequency 20 MHz, available temperature closest to 37° C.; cited from earlier work
# [3] = Measurement of relaxation time / relaxivity, Bruker minispec relaxometer; type: physicochemical; conditions: relaxivity per Gd ion, 20 MHz, 37° C., ultrapure water
# Method: The relaxation times relating to the particles obtained were measured on a Bruker minispec NMS 120 relaxometer (Bruker, Rheinstetten, Germany) operating at a proton resonance frequency of ω/2π=20 MHz and a temperature of 37° C. In order to avoid any confusion between angular frequency ω and the frequency v, here, all of the frequencies given in Hz correspond to ω/2π=v. The spectrometer was calibrated using standard water/oil mixtures with known component ratios, in accordance with the manufacturer's instructions. The pre-diluted samples were further diluted directly in 10 mm NMR (nuclear magnetic resonance) tubes using a series containing 10×1 mL samples. All of the dilutions were made using ultrapure water. The tubes were sealed and placed in a water bath at 37° C. for at least 10 minutes before measurement, The relaxation times T1 were determined by using the inversion-recovery pulse sequence with a repetition time TR=5 s. […] In general, 100 echoes with an echo time TE between 0.5 and 2 ms depending on the concentration of the sample were recorded. […]
# The relaxivities per particle were determined by firstly calculating the volume of a particle. To this end, the nanoparticles were assumed to be homogeneous in dimension and spherical with a diameter equal to the number average diameter determined by DLS (dynamic light scattering). […]
Compound,pKGdL [1],r1 [2] [mM⁻¹ s⁻¹],r1^ion [3] [mM⁻¹ s⁻¹]
O=C([O-])CN1CCN(CC(=O)[O-])CCN([C@H](CO)[C@H](O)CO)CCN(CC(=O)[O-])CC1.[Gd+3] (racemic) [Gadovist],21.1,4.8,–
O=C([O-])CN(CCN(CC(=O)[O-])CC(COP(=O)([O-])OC1CCC(c2ccccc2)(c2ccccc2)CC1)N(CC(=O)[O-])CC(=O)[O-])CC(=O)[O-].[Gd+3].[Na+].[Na+].[Na+] (stereo not drawn) [Ablavar],6.6,–,–
CCOc1ccc(CC(CN(CCN(CC(=O)[O-])CC(=O)[O-])CC(=O)[O-])N(CC(=O)[O-])CC(=O)[O-])cc1.[Gd+3].[Na+].[Na+] (stereo not drawn) [Eovist],–,5.4,–
[Cl][Gd]([Cl])[Cl] [GdCl3],–,–,10.4
CNC[C@H](O)[C@@H](O)[C@H](O)[C@H](O)CO.CNC[C@H](O)[C@@H](O)[C@H](O)[C@H](O)CO.O=C([O-])CN(CCN(CC(=O)[O-])CC(=O)O)CCN(CC(=O)[O-])CC(=O)O.[Gd+3] [Magnevist],22.5,3.8,–
CNC[C@H](O)[C@@H](O)[C@H](O)[C@H](O)CO.CNC[C@H](O)[C@@H](O)[C@H](O)[C@H](O)CO.O=C([O-])CN(CCN(CC(=O)[O-])CC(=O)O)CCN(CC(=O)O)C(COCc1ccccc1)C(=O)[O-].[Gd+3] (stereo not drawn) [MultiHance],22.6,4.39,–
CNC(=O)CN(CCN(CCN(CC(=O)[O-])CC(=O)NC)CC(=O)[O-])CC(=O)[O-].[Gd+3] [Omniscan],16.9,3.96,–
COCCNC(=O)CN(CCN(CCN(CC(=O)[O-])CC(=O)NCCOC)CC(=O)[O-])CC(=O)[O-].[Gd+3] [OptiMark],16.8,4.7,–
CC(O)CN1CCN(CC(=O)[O-])CCN(CC(=O)[O-])CCN(CC(=O)[O-])CC1.[Gd+3] (stereo not drawn) [Prohance],23.8,3.7,–
